# Results: US10357484B2, “Heterocyclic compound” (Takeda Pharmaceutical Company Limited, priority 2015, dated 2019)
# Legend:
# Type in all cases: biochemical
# HDAC1 enzyme = target: T1, HDAC1 enzyme (Homo sapiens, UniProt Q13547); assay: HDAC1 enzyme inhibitory assay (HDAC-Glo I/II Assay kit); details: 1 μM test compound; wells without enzyme = 100% inhibition; read-out: HDAC1 inhibitory rate (%) (1 μM)
# T1 construct: transducing full length HDAC1 and HDAC6 genes into Sf-9 insect cells; GST; purchased SignalChem; host or cells: Sf-9 insect cells
# Experimental: (§1) HDAC1/6 Enzyme Inhibitory Assay
# (§2) HDAC1 enzyme and HDAC6 enzyme each prepared by transducing full length HDAC1 and HDAC6 genes into Sf-9 insect cells and purifying by GST affinity column were purchased from SignalChem. Using these enzymes, HDAC1 and/or HDAC6 enzyme inhibitory activities of the compound of the present invention were evaluated. Enzymes were used after preserved at −70° C. HDAC1 or HDAC6 enzyme inhibitory activity of the compound of the present invention was measured using HDAC-Glo™ I/II Assay kit (Promega) according to the following experimental method. The test compound diluted with assay buffer (24 mM Tris-HCl (pH 7.5), 1 mM MgCl2, 0.35 mM KCl, 135 mM NaCl, 0.6 mM Glutathione, 0.01% Tween-20) was added to a 384-well plate by each 2 μL. Then, HDAC1 or HDAC6 enzyme solution diluted with assay buffer was added thereto by each 4 μL, and the plate was incubated at room temperature for 60 min. After incubated, HDAC substrate-Developer solution prepared according to Promega protocol attached to the assay kit was added to the 384-well plate by each 2 μL, and the enzyme reaction was started. After reacting at room temperature for 20 min, luminescence level was measured using plate reader Envision (PerkinElmer). The inhibitory activity of each compound was calculated as a relative activity value when luminescence level in wells without enzyme is considered as 100% inhibition.
# HDAC9 enzyme = target: T2, HDAC9 enzyme (Homo sapiens, UniProt Q9UKV0); assay: HDAC9 enzyme inhibitory assay (HDAC-Glo class IIa); details: 1 μM test compound; wells without enzyme = 100% inhibition; read-out: HDAC9 inhibitory rate (%) (1 μM)
# T2 construct: transducing full length HDAC9 gene into Sf-9 insect cells; made in house; host or cells: Sf-9 insect cells
# Experimental: HDAC9 Enzyme Inhibitory Assay
# Enzyme was prepared by transducing full length HDAC9 gene into Sf-9 insect cells and purifying by Ni-NTA affinity column, and HDAC9 enzyme inhibitory activity was evaluated. Enzymes were used after preserved at −70° C. HDAC9 enzyme inhibitory activity of the test compound was measured using HDAC-Glo class IIa (Promega) according to the following experimental method. The test compound diluted with assay buffer (24 mM Tris-HCl (pH 7.5), 1 mM MgCl2, 0.35 mM KCl, 135 mM NaCl, 0.6 mM Glutathione, 0.01% Tween-20) was added to a 384-well plate by each 2 μL. Then, HDAC9 enzyme solution diluted with assay buffer was added thereto by each 2 μL, and the plate was incubated at room temperature for 60 min. After incubated, HDAC substrate-Developer solution prepared according to Promega protocol was added to the 384-well plate by each 4 μL, and the enzyme reaction was started. After reacting at room temperature for 20 min, luminescence level was measured using plate reader Envision (PerkinElmer). The inhibitory activity of each compound was calculated as a relative activity value when luminescence level in wells without enzyme is considered as 100% inhibition.
# HDAC6 enzyme = target: T3, HDAC6 enzyme (Homo sapiens, UniProt Q9UBN7); assay: HDAC6 enzyme inhibitory assay (HDAC-Glo I/II Assay kit); details: 1 μM test compound; wells without enzyme = 100% inhibition; read-out: HDAC6 inhibitory rate (%) (1 μM)
# T3 construct: transducing full length HDAC1 and HDAC6 genes into Sf-9 insect cells; GST; purchased SignalChem; host or cells: Sf-9 insect cells
# T3 sequence (Q9UBN7 1-1215): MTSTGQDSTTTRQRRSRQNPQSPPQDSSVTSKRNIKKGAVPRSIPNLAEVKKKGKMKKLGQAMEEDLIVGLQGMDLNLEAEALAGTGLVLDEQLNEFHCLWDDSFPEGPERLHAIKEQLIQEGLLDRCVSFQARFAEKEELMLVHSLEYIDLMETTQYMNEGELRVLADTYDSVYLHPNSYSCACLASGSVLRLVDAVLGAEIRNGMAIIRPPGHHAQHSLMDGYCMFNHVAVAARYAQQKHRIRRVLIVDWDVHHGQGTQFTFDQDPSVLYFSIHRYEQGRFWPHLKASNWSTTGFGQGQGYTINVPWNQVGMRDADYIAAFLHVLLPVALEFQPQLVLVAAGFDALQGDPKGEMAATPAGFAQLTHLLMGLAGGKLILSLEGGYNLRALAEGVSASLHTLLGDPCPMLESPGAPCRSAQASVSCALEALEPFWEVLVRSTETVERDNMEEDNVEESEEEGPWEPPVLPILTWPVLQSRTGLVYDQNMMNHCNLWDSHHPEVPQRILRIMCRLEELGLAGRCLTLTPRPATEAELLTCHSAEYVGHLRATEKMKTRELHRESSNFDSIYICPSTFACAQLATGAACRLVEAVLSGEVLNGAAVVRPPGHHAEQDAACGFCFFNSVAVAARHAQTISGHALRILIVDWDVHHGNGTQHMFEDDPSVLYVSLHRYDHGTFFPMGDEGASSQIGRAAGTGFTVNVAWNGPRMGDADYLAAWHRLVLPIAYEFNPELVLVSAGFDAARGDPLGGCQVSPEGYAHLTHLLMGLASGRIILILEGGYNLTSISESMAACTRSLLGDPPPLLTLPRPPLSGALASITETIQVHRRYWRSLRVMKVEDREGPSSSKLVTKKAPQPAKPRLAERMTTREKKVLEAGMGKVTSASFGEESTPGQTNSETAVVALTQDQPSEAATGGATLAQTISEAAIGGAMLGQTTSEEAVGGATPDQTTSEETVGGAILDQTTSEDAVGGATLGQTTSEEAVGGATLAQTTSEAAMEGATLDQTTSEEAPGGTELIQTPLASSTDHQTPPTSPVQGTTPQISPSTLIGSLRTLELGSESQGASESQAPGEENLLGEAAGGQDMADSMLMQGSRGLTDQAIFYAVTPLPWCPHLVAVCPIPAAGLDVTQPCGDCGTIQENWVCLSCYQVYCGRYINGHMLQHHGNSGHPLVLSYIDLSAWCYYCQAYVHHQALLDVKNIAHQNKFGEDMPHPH
# Experimental: as §1, §2
# T2 sequence (Q9UKV0 whole entry, species assumed): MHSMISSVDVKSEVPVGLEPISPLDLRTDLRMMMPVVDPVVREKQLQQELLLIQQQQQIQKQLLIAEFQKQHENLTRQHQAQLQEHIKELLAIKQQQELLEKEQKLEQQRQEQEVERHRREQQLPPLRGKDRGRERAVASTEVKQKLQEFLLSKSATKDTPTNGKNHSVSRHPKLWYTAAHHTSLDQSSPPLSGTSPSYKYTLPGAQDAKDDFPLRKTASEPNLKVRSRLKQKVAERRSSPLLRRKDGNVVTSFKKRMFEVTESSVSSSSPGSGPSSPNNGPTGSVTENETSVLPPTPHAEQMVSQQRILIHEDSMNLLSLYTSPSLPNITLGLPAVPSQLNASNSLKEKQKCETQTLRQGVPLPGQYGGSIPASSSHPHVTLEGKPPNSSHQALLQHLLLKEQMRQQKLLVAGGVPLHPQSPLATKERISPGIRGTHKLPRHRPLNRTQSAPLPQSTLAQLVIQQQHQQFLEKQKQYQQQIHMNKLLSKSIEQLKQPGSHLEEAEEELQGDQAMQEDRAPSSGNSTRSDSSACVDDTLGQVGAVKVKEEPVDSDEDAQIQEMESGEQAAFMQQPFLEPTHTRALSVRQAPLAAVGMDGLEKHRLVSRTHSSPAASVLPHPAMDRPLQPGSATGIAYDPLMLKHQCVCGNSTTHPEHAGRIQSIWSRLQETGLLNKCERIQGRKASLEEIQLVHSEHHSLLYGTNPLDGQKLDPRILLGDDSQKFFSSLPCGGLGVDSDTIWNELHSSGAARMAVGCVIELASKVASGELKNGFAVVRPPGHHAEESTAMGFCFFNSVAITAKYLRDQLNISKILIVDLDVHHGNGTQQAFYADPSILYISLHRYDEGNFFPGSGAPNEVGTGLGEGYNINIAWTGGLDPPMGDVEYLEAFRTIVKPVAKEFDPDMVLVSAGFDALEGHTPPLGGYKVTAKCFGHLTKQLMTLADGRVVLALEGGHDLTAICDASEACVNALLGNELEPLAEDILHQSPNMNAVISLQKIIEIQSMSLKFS
# T1 sequence (Q13547 whole entry): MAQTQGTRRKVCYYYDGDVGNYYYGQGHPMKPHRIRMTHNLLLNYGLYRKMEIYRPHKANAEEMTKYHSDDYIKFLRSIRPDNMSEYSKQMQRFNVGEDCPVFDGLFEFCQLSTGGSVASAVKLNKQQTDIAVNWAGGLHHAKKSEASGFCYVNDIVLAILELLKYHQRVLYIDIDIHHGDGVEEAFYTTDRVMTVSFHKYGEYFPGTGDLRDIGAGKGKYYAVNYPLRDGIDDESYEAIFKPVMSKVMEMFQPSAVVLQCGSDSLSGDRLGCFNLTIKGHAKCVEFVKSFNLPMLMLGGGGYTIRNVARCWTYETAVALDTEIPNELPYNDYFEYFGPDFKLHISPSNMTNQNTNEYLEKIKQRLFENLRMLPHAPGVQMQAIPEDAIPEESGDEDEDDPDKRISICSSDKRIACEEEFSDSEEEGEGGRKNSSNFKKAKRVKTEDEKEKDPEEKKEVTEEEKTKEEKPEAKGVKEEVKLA
Structure (SMILES),inhibition at 1 µM (HDAC1 enzyme),inhibition at 1 µM (HDAC9 enzyme),inhibition at 1 µM (HDAC6 enzyme)
"O=C1c2cc(-c3noc(C(F)(F)F)n3)ccc2CN1Cc1ccccc1OC(F)(F)F [Example 26, 2-(2-(trifluoromethoxy)benzyl)-6-(5-(trifluoromethyl)-1,2,4-oxadiazol-3-yl)isoindolin-1-one]",8%,58%,95%
"COc1ccc([C@H](C)N2Cc3ccc(-c4noc(C(F)(F)F)n4)cc3C2=O)cc1 [Example 18, 2-((1S)-1-(4-methoxyphenyl)ethyl)-6-(5-(trifluoromethyl)-1,2,4-oxadiazol-3-yl)isoindolin-1-one]",27%,89%,91%
"C[C@@H](c1cccc2ccccc12)N1Cc2ccc(-c3noc(C(F)(F)F)n3)cc2C1=O [Example 22, 2-((1S)-1-(1-naphthyl)ethyl)-6-(5-(trifluoromethyl)-1,2,4-oxadiazol-3-yl)isoindolin-1-one]",3%,82%,92%
"O=C1c2cc(-c3noc(C(F)(F)F)n3)cnc2CN1Cc1cccnc1 [Example 4, 6-(pyridin-3-ylmethyl)-3-(5-(trifluoromethyl)-1,2,4-oxadiazol-3-yl)-6,7-dihydro-5H-pyrrolo[3,4-b]pyridin-5-one]",43%,93%,93%
"COc1cccc(CN2Cc3ccc(-c4noc(C(F)(F)F)n4)cc3C2=O)c1 [Example 9, 2-(3-methoxybenzyl)-6-(5-(trifluoromethyl)-1,2,4-oxadiazol-3-yl)isoindolin-1-one]",31%,81%,98%
"O=C1c2cc(-c3noc(C(F)(F)F)n3)cnc2CN1Cc1ccccc1 [Example 1, 6-benzyl-3-(5-(trifluoromethyl)-1,2,4-oxadiazol-3-yl)-6,7-dihydro-5H-pyrrolo[3,4-b]pyridin-5-one]",61%,94%,101%
"O=C1c2cc(-c3noc(C(F)(F)F)n3)ccc2CN1Cc1ccccc1Cl [Example 25, 2-(2-chlorobenzyl)-6-(5-(trifluoromethyl)-1,2,4-oxadiazol-3-yl)isoindolin-1-one]",11%,64%,94%
"CC(C)(c1ccccc1)N1Cc2ncc(-c3noc(C(F)(F)F)n3)cc2C1=O [Example 3, 6-(2-phenylpropan-2-yl)-3-(5-(trifluoromethyl)-1,2,4-oxadiazol-3-yl)-6,7-dihydro-5H-pyrrolo[3,4-b]pyridin-5-one]",36%,89%,98%
"CC(c1cccnc1)N1Cc2ncc(-c3noc(C(F)(F)F)n3)cc2C1=O (stereo not drawn) [Example 5, 6-(1-(pyridin-3-yl)ethyl)-3-(5-(trifluoromethyl)-1,2,4-oxadiazol-3-yl)-6,7-dihydro-5H-pyrrolo[3,4-b]pyridin-5-one]",43%,93%,97%
"O=C1c2cc(-c3noc(C(F)(F)F)n3)ccc2CN1Cc1ccccc1F [Example 24, 2-(2-fluorobenzyl)-6-(5-(trifluoromethyl)-1,2,4-oxadiazol-3-yl)isoindolin-1-one]",17%,75%,97%
